melting point	SMILES
190 °C	COc1cc2c(cc1OC)CN(CCCOc1ccc(NC(=O)c3cccc4c(=O)c5cccc(OC)c5[nH]c34)cc1)CC2
63 to 65 °C	CCCCCCCC1=CC(=O)N(c2ccccc2)C1=CBr
166 °C	COC1CN=C(N2CCN(c3ccc(O)cc3)CC2)S1 (stereo not given)
156 °C	Cc1coc(C)c1C(=O)OC1CC(C)(C)N(CC#N)C(C)(C)C1
211 to 212 °C	O=c1n(-c2cccc3ccccc23)c(=O)n(CCO)n1CCO
101 to 103 °C	COC(=O)c1cc(C)nc(OC)n1
153 to 154 °C	CCCCCCCCCCCCS(=O)(=O)c1cc(C(=O)O)c([N+](=O)[O-])c(S(=O)(=O)CCCCCCCCCCCC)c1
105 to 106 °C	CN(C)c1ccc2sc(C=O)cc2c1
159 to 160 °C	CC(C)(C)c1cc(CN(c2cccnc2)S(=O)(=O)c2ccc([N+](=O)[O-])cc2)cc(C(C)(C)C)c1O
55 to 56 °C	CCC(=S)c1ccc(C)cc1
84 to 85 °C	CC(C)(C)OC(=O)NCCC(=O)NCCC(=O)OCc1ccccc1
209 to 210 °C	O=c1c2cc(F)c(Cl)nc2n(Cc2ccccc2)c(=O)n1OCc1ccccc1
42 to 43 °C	COC(=O)C(=O)c1ccc(OCCCc2ccc(F)cc2)cc1
> 300 °C	COc1ccc(C(=O)Nc2c(Cl)cncc2Cl)c2c1OCC2CC(=O)Nc1c(Cl)cncc1Cl (stereo not given)
132 °C	N#CC1CC(c2ccccc2Cl)=NC1c1ccc(-c2ccc(OC(F)(F)F)cc2)cc1 (stereo not given)
97 to 98 °C	O=C(CCCCCBr)c1cc2c3c(c1)CCN3C(=O)CC2
62 to 68 °C	Nc1ccc(C(O)C(CO)N2CCC(Cc3ccccc3)CC2)cc1 (stereo not given)
218 to 222 °C	CCn1c([N+](=O)[O-])cnc1-c1nnc2ccc(N)nn12
186 to 189 °C	CS(=O)(=O)c1ccc(-c2cnn(Cc3ccccc3)c(=O)c2Cc2ccc(F)cc2)cc1
113 to 116 °C	COc1ccc(-c2ccc3c(C(=O)N(C)C)cccc3c2)cc1
57 to 59 °C	COCc1cc([N+](=O)[O-])c(Cl)cc1C#N
115 °C	CC(C)(C)OC(=O)NCCCN(CCCCOC(=O)NCNC(=O)CCCCCCNC(=O)OCc1ccccc1)C(=O)OC(C)(C)C
27.1 to 27.7 °C	CCCCCCCCCCCCCC[C@@H]1CO[C@@H](CO)C1 (relative stereo)
111 to 112 °C	CC(=O)N(N=Nc1cc(C(F)(F)F)ccc1C#N)c1cc(C(F)(F)F)ccc1C#N
75 to 76 °C	COc1cc2c(cc1C=O)C(C)(C)CO2
59 to 64 °C	C=CC[N+]([O-])(CCCCCCCCCCCCCCCCCC)CCCCCCCCCCCCCCCCCC
168 to 170 °C	CCC(CC)Cn1c(=O)c(=O)[nH]c2ccc(NC(C)=O)cc21

melting point	SMILES
138 to 140 °C	COc1cc(N)c(Cl)cc1C(=O)NCC1CCN(CCCCCCCC(=O)c2ccccc2)CC1
240 to 242 °C	COC(=O)c1cccc(CNC(=O)C2CC2)c1C(=O)OC
179 to 180 °C	CC[C@H](C)[C@H](NC(=O)O[C@@H](CC(C)C)C(=O)O)C(=O)NC(C)C
155 to 157 °C	COc1ccccc1-n1c(=O)[nH]c2c(C(N)=O)nc(NC[C@H]3CCCN3)nc21
205 to 207 °C	N#Cc1cnc2cc(Br)ccc2c1Nc1ccc(Oc2ccccc2)cc1
175 to 177 °C	CC(=O)Nc1ccc(CNC(=O)c2ccccc2)cc1
165 to 166 °C	Cc1ccnc(NC(=O)c2c(-c3ccc(F)cc3)c(-c3ccc(F)cc3)cn2C(C)C)n1
140 to 142 °C	CCCCNC(=O)NS(=O)(=O)c1ccccc1S(=O)(=O)OCC(F)(F)F
131 to 132 °C	CCOC(=O)Cc1ccc(-c2nc(COc3ccc(COc4nn(-c5ccccc5)cc4/C=C/c4nc(N5CCCCC5)sc4C)cc3OC)c(C)o2)cc1
140 °C	Clc1ccc(C(c2ccccc2)(c2ncc[nH]2)c2ncc[nH]2)cc1
90 to 91 °C	CN1CCc2cc[nH]c2C(c2ccccc2)C1 (stereo not given)
153 to 155 °C	O=C(c1ccccc1)c1ccc(O)c(O)c1[N+](=O)[O-]
179 to 181 °C	CC(C)(C)N1C(=O)OC2(CCN(Cc3ccccc3)CC2)C1(C)O (stereo not given)
84.3 to 86.2 °C	CCOC(=O)C1=Cc2cc(C=O)ccc2OC1C(F)(F)F (stereo not given)
140 to 142 °C	CCCSC(C(N)=O)c1cccc(C(=O)c2ccc(F)cc2)c1N (stereo not given)
191 to 193 °C	COc1ccc(C(=O)Nc2ccccc2)cc1NS(=O)(=O)c1ccc(Cl)c(Cl)c1
162 to 164 °C	O=C(CC1CCCC1)Nc1ccc2c(c1)C(=O)C(Br)CC2 (stereo not given)
173 to 175 °C	Cc1ccc(N(CCN2CCC(C(=O)c3ccc(F)cc3)CC2)C(=O)c2cccc(N)c2)cc1
45 °C	O=C1CCC(=O)N1CCS
197 to 199 °C	CCCCNC(=O)Nc1ccc(-n2ccnc2)cc1C(=O)NCC1CCN(C(c2ccccc2)c2ccccc2)CC1
195 to 196 °C	COc1cc2c(cc1OC)CC(NC(=O)C1CCC(=O)N1)CC2 (stereo not given)
138 °C	Oc1nsc(SCc2ccc(Cl)cc2)n1
290 to 291 °C	NC(=O)c1ccc(C(=O)Nc2ccc(-n3nc(C(F)(F)F)cc3C(F)(F)F)cc2)cc1
100 to 101 °C	NC(=O)c1cccc(OCCF)c1OCCF
83 to 84 °C	O=C(O)Cc1cccc(OCCCCl)c1
> 280 °C	O=c1c(Br)c(O)c2cccnc2n1-c1ccccc1
149 to 150 °C	CC(C)(C)NC(=O)[C@@H]1C[C@H](Cl)CN1C(=O)OC(C)(C)C

Second part, the compound before the results:

SMILES	melting point
CCOC(=O)CC(=O)c1ccc(F)c(Cl)c1	39 to 40 °C
CC1(C)CCc2c(N3CCCC3)nc3sc4c(NCc5ccco5)ncnc4c3c2C1	201 to 202 °C
Cc1cnc(N2CCC(c3ccc([N+](=O)[O-])cc3)CC2)n1C	178 to 179 °C
CN1CCC(O)(c2cccn2C)CC1	123 to 124 °C
CC1(C)CCCC(=O)N1	128 to 131 °C
COc1ccc(C(=O)C2=C(O)C(=O)N(c3nnc(C)s3)C2c2ccc(C#N)cc2)cc1 (stereo not given)	185 °C
C[C@@H](n1cnc2cc(-c3ccc([N+](=O)[O-])cc3)sc2c1=O)[C@](O)(Cn1cncn1)c1ccc(F)cc1F	272 to 273 °C
CC(=O)Nc1scc(C)c1C(=O)c1ccccc1	106 to 107 °C
NNC1=Nc2ccc(I)cc2C(c2ccccc2F)=NC1	179 to 181 °C
Cn1ncnc1COc1nn2c(-c3ccccc3)nnc2cc1C12CCC(CC1)C2	244 to 246 °C
CS(=O)(=O)c1ccc(C(=O)Nc2ccc(Cl)c(-c3ncc(C(=O)NO)cn3)c2)c(Cl)c1	170 to 172 °C
CCCOc1ccccc1-c1nc2nc(NC3CC3)ncc2c(=O)[nH]1	208 °C
C=CCOC(=O)N=C(OCC)N1Cc2ccccc2-c2ccccc2C1	76 to 77.5 °C
CC(C)(O)c1cnn2c(-c3ccc(F)c(-c4ccc(F)cc4C#N)c3)cnc2n1	215 °C
Cc1ccc(S(=O)(=O)N2[C@@H](c3noc(C)n3)CC[C@H]2c2ccc(F)cc2)cc1 (racemic)	115 °C
CCCc1c(OCC(O)CS(=O)(=O)c2ccc(C(=O)CCC(=O)O)cc2F)ccc(C(C)=O)c1O (stereo not given)	96 to 99 °C
CCN(C(=O)N1CCN(c2ccccc2OC)CC1)c1cc(C)c(C)nc1OC	112 to 113 °C
CC(=O)NCCNC(=O)c1ccc(Cl)cc1	222 to 224 °C
COc1ccc(N2CCOCC2)c2sc(-c3nc4c([nH]3)CCN(C(=O)OC(C)(C)C)CC4)nc12	120 °C
CC(C)(C)Sc1c(CC(C)(C)C(=O)O)n(Cc2ccc(Cl)cc2)c2ccc(OCc3cnc4ccccc4n3)cc12	216 to 219 °C
CC(c1ccc(-c2ccccc2)s1)N(O)C(N)=O (stereo not given)	150 to 152 °C
CCCCCCOc1cc(C)ccc1C(=O)c1cccc(C(=O)O)c1	118 °C
N#CN1CCC(c2nn(-c3ccccc3F)c3ccccc23)CC1	119 to 121 °C

SMILES	melting point
C=CCc1c(N)ccc2c(=O)cc(C(=O)OCC)oc12	142 to 143 °C
CN(C)CCn1c2ccc(O)cc2c2c3c(c(-c4ccccc4)cc21)C(=O)NC3=O	283 to 286 °C
COc1cc(Nc2ncc(-c3ccccc3C(=O)O)o2)ccc1-c1cnco1	271 to 274 °C
c1ccc(CN2CCC3(CC2)SCCS3)cc1	51 to 53 °C
COc1ccc(C(O)CCS(=O)(=O)c2ccc(S(N)(=O)=O)s2)cc1 (stereo not given)	129 to 130 °C
O=S(=O)(Nc1ccc2c(OCc3cccc(-c4ccc(C(F)(F)F)cc4)n3)cccc2c1)C(F)(F)F	180 to 182 °C
CCCCC1=C(C(=O)OCC)C(c2ccccc2Cl)c2c[nH]nc2N1 (stereo not given)	209 °C
CS(=O)(=O)c1ccc(-c2cnn(-c3ccc(F)c(Cl)c3)c(=O)c2Cc2ccccc2)cc1	164 to 166 °C
CCOC(=O)C(Oc1cc(-c2ccccc2)on1)C(=O)OCC	62 to 64 °C
Cc1nc2c(N)nc3ccccc3c2n1CCCCNS(C)(=O)=O	229 to 230 °C
Cc1cc2n[nH]c(=O)n2nc1-c1ccc(C(N)=S)cc1	325 to 329 °C
CCCCCCCCCCCCCCOc1ccc(CO)cc1	72 to 74 °C
Nc1nc2c(ncn2OC(CO)CCP(=O)(O)O)c(=O)[nH]1 (stereo not given)	177 to 178 °C
O=C1C(=O)c2ccccc2C2=C1SCC1(CCN(C(=O)c3ccco3)CC1)O2	165 °C
Cc1cc(-c2ccccc2)n2nc(C(F)(F)F)c(C#N)c2n1	143 to 148 °C
CN(C)CCN(C(=O)N(C)C)c1nc2ccccc2[nH]1	193 to 195 °C
COC(=O)CS(=O)(=O)Cc1cccc(-c2nc(=O)c3ccccc3s2)n1	205 to 207 °C
CCc1nnc2c(Cl)nc3cc(F)ccc3n12	203 to 205 °C
CNC(=O)N1CC(Oc2cc(C(F)(F)F)ccc2F)C1	93.5 to 95 °C
Cc1nc2c(-c3cccc(N4CCN(C)CC4)c3)cnn2c(N)c1-c1ccc(F)c(F)c1	216 to 219 °C
Cc1c(N)cc(C)c2c(=O)[nH]ccc12	242 °C
NC(=O)Cc1c(Cl)cnc2c(NC(=O)c3c(Cl)cccc3Cl)cccc12	> 300 °C
Clc1ccc(CNc2ccccc2-n2ccnc2)c(Cl)c1	100 to 103 °C
